How the values were obtained:
MCF7 [1] = assay: Antiproliferative activity against ER positive human MCF7 cells after 48 hrs by MTT assay; type: functional, cell-based; conditions: MCF7, 48 h
Ishikawa = assay: Antiproliferative activity against human Ishikawa cells after 48 hrs by MTT assay; type: functional, cell-based
MCF7 [2] = assay: Potency index, ratio of tamoxifen IC50 to compound IC50 against human MCF7 cells; type: functional
[3] = molecular target: T1, Estrogen receptor (Homo sapiens) (UniProt P03372); assay: Displacement of fluoromone from full length recombinant human estrogen receptor alpha expressed in Spodoptera frugiperda at 100 uM measured after 2 hrs by fluorescence polarization assay relative to control
T1 sequence (whole entry): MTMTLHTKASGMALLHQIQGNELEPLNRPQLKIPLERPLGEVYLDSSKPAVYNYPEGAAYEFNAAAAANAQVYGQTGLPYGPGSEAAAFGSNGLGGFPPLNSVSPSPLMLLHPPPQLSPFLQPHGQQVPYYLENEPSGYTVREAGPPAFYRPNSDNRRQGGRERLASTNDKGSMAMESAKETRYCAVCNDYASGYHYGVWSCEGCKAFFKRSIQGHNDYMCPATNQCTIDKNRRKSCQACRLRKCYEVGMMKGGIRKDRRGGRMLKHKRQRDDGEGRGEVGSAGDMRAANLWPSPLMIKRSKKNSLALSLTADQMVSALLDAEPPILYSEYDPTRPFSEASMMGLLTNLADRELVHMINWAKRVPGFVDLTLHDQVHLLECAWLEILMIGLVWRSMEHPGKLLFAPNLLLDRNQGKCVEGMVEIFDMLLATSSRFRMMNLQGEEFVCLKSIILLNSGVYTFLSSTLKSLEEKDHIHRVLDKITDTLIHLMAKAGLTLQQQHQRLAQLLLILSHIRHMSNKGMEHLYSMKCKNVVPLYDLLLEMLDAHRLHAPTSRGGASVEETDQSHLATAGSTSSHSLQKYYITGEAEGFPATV

IC50 (MCF7 [1])	RBA [3]	SMILES	IC50 (Ishikawa)	Ratio IC50 (MCF7 [2])
11.3 µM	–	CC/C(=C(\c1ccccc1)c1ccc(OCCN(C)C)cc1)c1ccccc1 [TAMOXIFEN]	–	–
5.86 µM	–	COc1ccc(-c2c(Nc3ccc(OCCN4CCCCC4)cc3)c3ccccc3oc2=O)cc1	8.74 µM	–
6.21 µM	–	COc1ccc(-c2c(Nc3ccc(OCCN4CCCC4)cc3)c3ccccc3oc2=O)cc1	9.3 µM	–
9.53 µM	–	COc1ccc(-c2c(Nc3ccc(OCCN(C)C)cc3)c3ccc(O)cc3oc2=O)cc1	13.2 µM	–
12.4 µM	–	COc1ccc(-c2c(Nc3ccc(OCCN4CCN(C)CC4)cc3)c3ccc(OC)cc3oc2=O)cc1	15.2 µM	–
4.52 µM	–	COc1ccc(-c2c(Nc3ccc(OCCN4CCCCC4)cc3)c3ccc(OC)cc3oc2=O)cc1	11.6 µM	3
8.76 µM	–	COc1ccc(-c2c(Nc3ccc(OCCN(C)C)cc3)c3ccccc3oc2=O)cc1	11.8 µM	–
6.51 µM	–	COc1ccc(-c2c(Nc3ccc(OCCN4CCCC4)cc3)c3ccc(OC)cc3oc2=O)cc1	9.39 µM	–
15.6 µM	–	COc1ccc(-c2c(Nc3ccc(OCCN4CCN(C)CC4)cc3)c3ccccc3oc2=O)cc1	23.4 µM	–
8.81 µM	–	CCN(CC)CCOc1ccc(Nc2c(-c3ccc(OC)cc3)c(=O)oc3cc(O)ccc23)cc1	14.8 µM	–
> 100 µM	24%	COc1ccc(-c2c(Nc3ccc(OCCN4CCOCC4)cc3)c3ccc(OC)cc3oc2=O)cc1	> 100 µM	–
7.31 µM	–	COc1ccc(-c2c(Nc3ccc(OCCN4CCCCC4)cc3)c3ccc(O)cc3oc2=O)cc1	8.43 µM	–
10.2 µM	–	CCN(CC)CCOc1ccc(Nc2c(-c3ccc(OC)cc3)c(=O)oc3cc(OC)ccc23)cc1	8.84 µM	–
8.42 µM	–	COc1ccc(-c2c(Nc3ccc(OCCN4CCCC4)cc3)c3ccc(O)cc3oc2=O)cc1	11.8 µM	–
8.32 µM	–	COc1ccc(-c2c(Nc3ccc(OCCN(C)C)cc3)c3ccc(OC)cc3oc2=O)cc1	12.2 µM	–
17.6 µM	–	COc1ccc(-c2c(Nc3ccc(OCCN4CCN(C)CC4)cc3)c3ccc(O)cc3oc2=O)cc1	19.4 µM	–
7.57 µM	–	CCN(CC)CCOc1ccc(Nc2c(-c3ccc(OC)cc3)c(=O)oc3ccccc23)cc1	10.8 µM	–
> 100 µM	–	COc1ccc(-c2c(Nc3ccc(OCCN4CCOCC4)cc3)c3ccc(O)cc3oc2=O)cc1	> 100 µM	–
47.5 µM	17%	COc1ccc(-c2c(Nc3ccc(OCCN4CCOCC4)cc3)c3ccccc3oc2=O)cc1	49.5 µM	–

From ChEMBL document CHEMBL4024734, “Design, synthesis, biological evaluation and molecular docking studies of novel 3-aryl-4-anilino-2H-chromen-2-one derivatives targeting ERα as anti-breast cancer agents” (Bioorg Med Chem Lett, 2017)
